Earlier results in patent US6458974B1, “Synthesis of β-lapachone and its intermediates” (Cyclis Pharmaceuticals, Inc., priority 2001, dated 2002).

Columns and labels:
[1] = test system: normal fresh or proliferating human PBMC
[2] = test system: human cancer cell lines; settings: single agent, concentrations typically in this range, read-out: antineoplastic activity (IC50)

For `CC1(C)CCC2=C(O1)c1ccccc1C(=O)C2=O` [β-lapachone, 3,4-dihydro-2,2-dimethyl-2H-naphtho[1,2-b]pyran-5,6-dione], which cytotoxic effects [1] is on record?
The cytotoxic effects was “No cytotoxic effects”.

And the IC50 [2]?
The IC50 was 1 to 10 µM.
